According to US8133884B2, “Compounds for the treatment of hepatitis C” (priority 2008, dated 2012):
pEC50, pIC50: −log10 of the molar value.

Key:
HCV NS5B = target: T1, HCV NS5B (Hepatitis C virus genotype 1b, UniProt Q9WMX2); experiment: Modified HCV NS5B RdRp enzyme assay (preincubation protocol); format: biochemical
T1 construct: The protein was expressed with an 18 amino acid C-terminal truncation to enhance the solubility; made in house; host or cells: E. coli BL21(DE3)
Outline: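 C-terminally truncated (Δ18) genotype 1b NS5B from E. coli, 14 nM, added to compound first, then polyA template (0.2 nM), 3H-UTP (0.29 μM) and oligo-dT12 primer precaptured on streptavidin SPA beads (20 nM). Run 4 h at 30° C, pH 7.5, 2% DMSO; IC50 fitted from seven concentrations.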

HCV replicon = HCV replicon assay (FRET or luciferase reporter); format: cell-based; conditions: Hepatitis C virus, one of the methods described
Outline: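 HCV replicon Huh-7 cells were exposed to titrated compound at 37 °C, with Alamar blue as a cytotoxicity read. Replication was measured by NS3 cleavage of an EDANS/DABCYL FRET peptide (20 μM, 340/490 nm kinetic read) or by Renilla luciferase, with background from high-dose protease inhibitor wells. EC50 was taken as 50% signal reduction; a 384-well format used 3.0×10^3 cells/well, 0.5% DMSO and 3 days.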

T1 sequence (Q9WMX2 2420-2992): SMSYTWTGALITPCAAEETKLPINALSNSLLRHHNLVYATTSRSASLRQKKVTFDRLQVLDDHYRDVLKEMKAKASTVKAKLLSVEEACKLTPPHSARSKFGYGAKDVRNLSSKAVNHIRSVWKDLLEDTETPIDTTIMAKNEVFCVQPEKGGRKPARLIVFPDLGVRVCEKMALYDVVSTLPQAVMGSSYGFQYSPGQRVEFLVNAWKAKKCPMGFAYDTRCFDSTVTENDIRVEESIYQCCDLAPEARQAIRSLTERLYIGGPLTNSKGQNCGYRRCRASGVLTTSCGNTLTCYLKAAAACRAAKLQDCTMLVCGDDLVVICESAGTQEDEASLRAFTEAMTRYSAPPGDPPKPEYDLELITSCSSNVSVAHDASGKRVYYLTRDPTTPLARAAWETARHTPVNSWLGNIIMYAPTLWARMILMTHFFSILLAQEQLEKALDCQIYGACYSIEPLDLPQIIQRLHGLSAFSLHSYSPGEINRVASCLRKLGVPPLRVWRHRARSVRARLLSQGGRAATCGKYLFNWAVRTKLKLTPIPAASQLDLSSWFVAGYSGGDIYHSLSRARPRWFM

Row | SMILES | pIC50 (HCV NS5B; class symbol) | pEC50 (HCV replicon; class symbol) | pIC50 (HCV NS5B; exact value) | pEC50 (HCV replicon; exact value)
1 | COc1ccc2c(c1)C=C(c1c(C(=O)N3C[C@@H](C)N(C)[C@@H](C)C3)cnn1C1CC1)Cn1c-2c(C2CCCCC2)c2ccc(C(=O)NS(=O)(=O)C(C)C)cc21 | 6.30 to 8.77 | 6.30 to 8.77 | – | –
2 | COc1ccc2c(c1)C=C(c1c(C(=O)N3CCOCC3)cnn1C1CC1)Cn1c-2c(C2CCCCC2)c2ccc(C(=O)NS(=O)(=O)C(C)C)cc21 | 6.30 to 8.77 | 6.30 to 8.77 | – | –
3 | COc1ccc2c(c1)C=C(c1c(C(=O)N3C[C@@H](C)N(C)[C@@H](C)C3)cnn1C1CCC1)Cn1c-2c(C2CCCCC2)c2ccc(C(=O)NS(=O)(=O)CC(C)C)cc21 | 6.30 to 8.77 | 6.30 to 8.77 | – | –
4 | COc1ccc2c(c1)C=C(c1c(C(=O)N3CCOCC3)cnn1C1CCC1)Cn1c-2c(C2CCCCC2)c2ccc(C(=O)NS(=O)(=O)CC(C)C)cc21 | 6.30 to 8.77 | 6.30 to 8.77 | – | –
5 | COc1ccc2c(c1)C=C(c1c(C(=O)N3C[C@@H](C)O[C@@H](C)C3)cnn1C1CCC1)Cn1c-2c(C2CCCCC2)c2ccc(C(=O)NS(=O)(=O)CC(C)C)cc21 | 6.30 to 8.77 | 6.30 to 8.77 | – | –
6 | COc1ccc2c(c1)C=C(c1c(C(=O)N3CC4CCC(C3)N4C)cnn1C1CCC1)Cn1c-2c(C2CCCCC2)c2ccc(C(=O)NS(=O)(=O)CC(C)C)cc21 | 6.30 to 8.77 | 6.30 to 8.77 | – | –
7 | COc1ccc2c(c1)C=C(c1c(C(=O)N3C4CCC3CN(C)C4)cnn1C1CCC1)Cn1c-2c(C2CCCCC2)c2ccc(C(=O)NS(=O)(=O)C(C)C)cc21 | 6.30 to 8.77 | 6.30 to 8.77 | – | –
8 | COc1ccc2c(c1)C=C(c1c(C(=O)N3C[C@@H](C)N(C)[C@@H](C)C3)cnn1C1CCC1)Cn1c-2c(C2CCCCC2)c2ccc(C(=O)NS(=O)(=O)C(C)C)cc21 | 6.30 to 8.77 | 6.30 to 8.77 | – | –
9 | COc1ccc2c(c1)C=C(c1c(C(=O)N3CCOCC3)cnn1C1CCC1)Cn1c-2c(C2CCCCC2)c2ccc(C(=O)NS(=O)(=O)C(C)C)cc21 | 6.30 to 8.77 | 6.30 to 8.77 | – | –
10 | COc1ccc2c(c1)C=C(c1c(C(=O)N3C[C@@H](C)O[C@@H](C)C3)cnn1C1CCC1)Cn1c-2c(C2CCCCC2)c2ccc(C(=O)NS(=O)(=O)C(C)C)cc21 | 6.30 to 8.77 | 6.30 to 8.77 | – | –
11 | COc1ccc2c(c1)C=C(c1c(C(=O)N3CC4CCC(C3)N4C)cnn1C1CCC1)Cn1c-2c(C2CCCCC2)c2ccc(C(=O)NS(=O)(=O)C(C)C)cc21 | 6.30 to 8.77 | 6.30 to 8.77 | – | –
12 | COc1ccc2c(c1)C=C(c1c(C(=O)N3C4CCC3CC(C)(O)C4)cnn1C1CCC1)Cn1c-2c(C2CCCCC2)c2ccc(C(=O)NS(=O)(=O)CC(C)C)cc21 (stereo not drawn) | 6.30 to 8.77 | 6.30 to 8.77 | – | –
13 | COc1ccc2c(c1)C=C(c1c(C(=O)N3C4CCC3CC(C)(O)C4)cnn1C1CCC1)Cn1c-2c(C2CCCCC2)c2ccc(C(=O)NS(=O)(=O)C(C)C)cc21 (stereo not drawn) | 6.30 to 8.77 | 6.30 to 8.77 | – | –
14 | CCOC(=O)c1cnn(C2CCN(C)CC2)c1C1=Cc2cc(OC)ccc2-c2c(C3CCCCC3)c3ccc(C(=O)O)cc3n2C1 | 6.30 to 8.77 | 6.30 to 8.77 | – | –
15 | COc1ccc2c(c1)C=C(c1c(C(=O)N3C4COCC3COC4)cnn1C1CCN(C)CC1)Cn1c-2c(C2CCCCC2)c2ccc(C(=O)NS(=O)(=O)C(C)C)cc21 | 6.30 to 8.77 | 6.30 to 8.77 | 8.12 | 6.89
16 | COc1ccc2c(c1)C=C(c1c(C(=O)N3CCOCC3)cnn1C1CCN(C)CC1)Cn1c-2c(C2CCCCC2)c2ccc(C(=O)NS(=O)(=O)C(C)C)cc21 | 6.30 to 8.77 | 6.30 to 8.77 | – | –
17 | COc1ccc2c(c1)C=C(c1c(C(=O)N3C4CCC3CN(C)C4)cnn1C1CCN(C)CC1)Cn1c-2c(C2CCCCC2)c2ccc(C(=O)NS(=O)(=O)C(C)C)cc21 | 6.30 to 8.77 | 6.30 to 8.77 | – | –
18 | COc1ccc2c(c1)C=C(c1c(C(=O)N3C[C@@H](C)O[C@@H](C)C3)cnn1C1CCN(C)CC1)Cn1c-2c(C2CCCCC2)c2ccc(C(=O)NS(=O)(=O)C(C)C)cc21 | 6.30 to 8.77 | 6.30 to 8.77 | 8.27 | 8.26
19 | COc1ccc2c(c1)C=C(c1c(C(=O)N3C[C@@H](C)N(C)[C@@H](C)C3)cnn1C1CCN(C)CC1)Cn1c-2c(C2CCCCC2)c2ccc(C(=O)NS(=O)(=O)C(C)C)cc21 | 6.30 to 8.77 | 6.30 to 8.77 | – | –
20 | CCOC(=O)c1cnn(C2CCN(C)CC2)c1C1=Cc2cc(OC)ccc2-c2c(C3CCCCC3)c3ccc(C(=O)NS(=O)(=O)C(C)C)cc3n2C1 | 6.30 to 8.77 | 6.30 to 8.77 | – | –
21 | COc1ccc2c(c1)C=C(c1c(C(=O)N3C4CCC3CC(C)(O)C4)cnn1C1CCN(C)CC1)Cn1c-2c(C2CCCCC2)c2ccc(C(=O)NS(=O)(=O)C(C)C)cc21 (stereo not drawn) | 6.30 to 8.77 | 6.30 to 8.77 | 7.02 | 8.00
22 | COCC1CN(C(=O)c2cnn(C3CCN(C)CC3)c2C2=Cc3cc(OC)ccc3-c3c(C4CCCCC4)c4ccc(C(=O)NS(=O)(=O)C(C)C)cc4n3C2)CCO1 (stereo not drawn) | 6.30 to 8.77 | 6.30 to 8.77 | – | –

Row | SMILES | pIC50 (HCV NS5B; class symbol) | pEC50 (HCV replicon; class symbol) | pIC50 (HCV NS5B; exact value) | pEC50 (HCV replicon; exact value)
23 | COc1ccc2c(c1)C=C(c1c(C(=O)N3C4CCCC3COC4)cnn1C1CCN(C)CC1)Cn1c-2c(C2CCCCC2)c2ccc(C(=O)NS(=O)(=O)C(C)C)cc21 | 6.30 to 8.77 | 6.30 to 8.77 | – | –
24 | CCOC(=O)c1cnn(-c2ccncc2C)c1C1=Cc2cc(OC)ccc2-c2c(C3CCCCC3)c3ccc(C(=O)O)cc3n2C1 | 6.30 to 8.77 | 6.30 to 8.77 | – | –
25 | COc1ccc2c(c1)C=C(c1c(C(=O)N3CC4CCC(C3)N4C)c(C)nn1C1CCC1)Cn1c-2c(C2CCCCC2)c2ccc(C(=O)NS(=O)(=O)C(C)C)cc21 | 6.30 to 8.77 | 6.30 to 8.77 | – | –
26 | COc1ccc2c(c1)C=C(c1c(C(=O)N3C[C@@H]4C[C@H]3CN4C)c(C)nn1C1CCC1)Cn1c-2c(C2CCCCC2)c2ccc(C(=O)NS(=O)(=O)C(C)C)cc21 | 6.30 to 8.77 | 6.30 to 8.77 | – | –
27 | COc1ccc2c(c1)C=C(c1c(C(=O)N3C[C@@H]4C[C@H]3CN4CC3CC3)c(C)nn1C1CCC1)Cn1c-2c(C2CCCCC2)c2ccc(C(=O)NS(=O)(=O)C(C)C)cc21 | 6.30 to 8.77 | 6.30 to 8.77 | – | –
28 | CCN1C[C@H]2C[C@@H]1CN2C(=O)c1cnn(C2CCC2)c1C1=Cc2cc(OC)ccc2-c2c(C3CCCCC3)c3ccc(C(=O)NS(=O)(=O)C(C)C)cc3n2C1 | 6.30 to 8.77 | 6.30 to 8.77 | – | –
29 | COc1ccc2c(c1)C=C(c1c(C(=O)N3CC[C@H]4C[C@H]43)cnn1C1CCC1)Cn1c-2c(C2CCCCC2)c2ccc(C(=O)NS(=O)(=O)C(C)C)cc21 | 6.30 to 8.77 | 6.30 to 8.77 | – | –
30 | COc1ccc2c(c1)C=C(c1c(C(=O)N3CCC(F)(F)CC3)cnn1C1CCC1)Cn1c-2c(C2CCCCC2)c2ccc(C(=O)NS(=O)(=O)C(C)C)cc21 | 6.30 to 8.77 | 6.30 to 8.77 | – | –
31 | COc1ccc2c(c1)C=C(c1c(C(=O)N3C4CCC3CC4)cnn1C1CCC1)Cn1c-2c(C2CCCCC2)c2ccc(C(=O)NS(=O)(=O)C(C)C)cc21 | 6.30 to 8.77 | 6.30 to 8.77 | – | –
32 | COCCN(CCOC)C(=O)c1cnn(C2CCC2)c1C1=Cc2cc(OC)ccc2-c2c(C3CCCCC3)c3ccc(C(=O)NS(=O)(=O)C(C)C)cc3n2C1 | 6.30 to 8.77 | 6.30 to 8.77 | – | –
33 | COCCN(C(=O)c1cnn(C2CCC2)c1C1=Cc2cc(OC)ccc2-c2c(C3CCCCC3)c3ccc(C(=O)NS(=O)(=O)C(C)C)cc3n2C1)C(C)C | 6.30 to 8.77 | 6.30 to 8.77 | – | –
34 | COc1ccc2c(c1)C=C(c1c(C(=O)N3CC(F)(F)C3)cnn1C1CCC1)Cn1c-2c(C2CCCCC2)c2ccc(C(=O)NS(=O)(=O)C(C)C)cc21 | 6.30 to 8.77 | 6.30 to 8.77 | – | –
35 | COc1ccc2c(c1)C=C(c1c(C(=O)N3C4CCCCC3CCC4)cnn1C1CCC1)Cn1c-2c(C2CCCCC2)c2ccc(C(=O)NS(=O)(=O)C(C)C)cc21 | 6.30 to 8.77 | 6.30 to 8.77 | 8.15 | 6.40
36 | COc1ccc2c(c1)C=C(c1c(C(=O)N3CC4CCC3C4)cnn1C1CCC1)Cn1c-2c(C2CCCCC2)c2ccc(C(=O)NS(=O)(=O)C(C)C)cc21 (stereo not drawn) | 6.30 to 8.77 | 6.30 to 8.77 | – | –
37 | COc1ccc2c(c1)C=C(c1c(C(=O)N3C[C@@H]4C[C@H]3CN4)cnn1C1CCC1)Cn1c-2c(C2CCCCC2)c2ccc(C(=O)NS(=O)(=O)C(C)C)cc21 | 6.30 to 8.77 | 6.30 to 8.77 | – | –
38 | COc1ccc2c(c1)C=C(c1ncn(C3CC3)c1C(=O)N1CCOCC1)Cn1c-2c(C2CCCCC2)c2ccc(C(=O)NS(=O)(=O)C(C)C)cc21 | 6.30 to 8.77 | 6.30 to 8.77 | 8.62 | 8.06
39 | COc1ccc2c(c1)C=C(c1ncn(C3CCC3)c1C(=O)N1CCOCC1)Cn1c-2c(C2CCCCC2)c2ccc(C(=O)NS(=O)(=O)C(C)C)cc21 | 6.30 to 8.77 | 6.30 to 8.77 | 8.74 | 8.05
40 | CCN1CC2CC1CN2C(=O)c1c(C2=Cc3cc(OC)ccc3-c3c(C4CCCCC4)c4ccc(C(=O)NS(=O)(=O)C(C)C)cc4n3C2)ncn1C1CCC1 (stereo not drawn) | 6.30 to 8.77 | 6.30 to 8.77 | – | –
41 | COc1ccc2c(c1)C=C(c1ncn(C3CCC3)c1C(=O)N1C[C@@H](C)O[C@@H](C)C1)Cn1c-2c(C2CCCCC2)c2ccc(C(=O)NS(=O)(=O)C(C)C)cc21 | 6.30 to 8.77 | 6.30 to 8.77 | – | –
42 | COc1ccc2c(c1)C=C(c1c(C(=O)N3C[C@@H]4C[C@H]3CN4C)cnn1C1CCC1)Cn1c-2c(C2CCCCC2)c2ccc(C(=O)NS(=O)(=O)C(C)C)cc21 | 6.30 to 8.77 | 6.30 to 8.77 | – | –
43 | COc1ccc2c(c1)C=C(c1c(C(=O)N3C[C@@H]4C[C@H]3CN4)c(C)nn1C1CCC1)Cn1c-2c(C2CCCCC2)c2ccc(C(=O)NS(=O)(=O)C(C)C)cc21 | > 8.77 | 6.30 to 8.77 | – | –
44 | COC[C@H]1CN(C(=O)c2cnn(C3CCC3)c2C2=Cc3cc(OC)ccc3-c3c(C4CCCCC4)c4ccc(C(=O)NS(=O)(=O)C(C)C)cc4n3C2)CCO1 | > 8.77 | 6.30 to 8.77 | > 8.77 | 8.00
